# From US20090253709A1 (NATIONAL DEFENSE MEDICAL CENTER, priority 2008, published 2009)
# Where two headings read alike, the source gives them in different places.
# Experiments:
# hTERT expression = experiment: SEAP assay, H1299/PhTERT-driven SEAP system; format: cell-based, human; conditions: for activity at 1 µM / activity at 10 µM / activity at 100 µM: Homo sapiens
# Description: The condition of the cells for selecting the telomerase inhibitor must be the cancer cells with telomerase activity. H1299 is a non-small cell lung cancer cell line with telomerase activity. The hTERT communication gene linked behind PhTERT which is located at the fifth chromosome of H1299 cell can be expressed; however, this expression is hard to detect. Therefore, the plasmid having the SEAP communication gene linked behind PhTERT was transfected into H1299 cells. Under the identical condition, after PhTERT was activated, the SEAP communication gene linked behind the plasmid was also activated. This gene could be detected by this analytic method while expressing.
# If additionally added reagent can inhibit PhTERT, the linked SEAP communication gene will not be expressed, and the hTERT communication gene linked behind PhTERT at the fifth chromosome will not be expressed. […]
# The cellular medium after the cellular incubation was transferred into the eppondorf tube, and the activity of endogeneous alkaline phosphatase was inactivated at 65° C. for 10 minutes. After centrification, the mixture was obtained by mixing 50 μl of the supernatant with the equal volume of the SEAP buffer. The mixture and the substrate (120 mM of p-nitrophenylphosphate) were preheated at 37° C. for 10 minutes respectively, and the mixture and the substrate were mixed at a ratio of 1:10 and reacted at 37° C. The absorbance of visible light at 405 nm was determined at the appropriate time intervals, and the enzymatic activity of SEAP was represented by the speed of the increasing absorbance at 405 nm.
# The selection of telomerase inhibitors of the anthraquinone compounds provided in the present invention was performed by the H1299/PhTERT-driven SEAP system. SEAP is the communication gene in this drug selection model. The SEAP inhibition was shown as follows. The quantitative cellular medium obtained after the 24-hour drug-treatment and the identical inactivation was reacted with the quantitative SEAP substrate, and the absorbance at 405 nm was detected for 5 time intervals. Subsequently, the linear slope of absorbance to the measuring time was calculated, and the variance of absorbance at 405 nm per minute was represented and compared with the SEAP-producing result of drug-untreated H1299 cells. In addition, the influence of the cell-treated drug solution to the cellular proliferation and the drug toxicity to the cells were considered, and the cellular growth was evaluated by the MTT assay. The drug-treated cells were analyzed by the SEAP assay and the data analysis of MTT assay at the same time. Both results were compared so as to delete the influence of cell number or the activity to SEAP, and the dose-dependent phenomenon could be anticipated in the range of drug concentration designed by the laboratory.
# In the preliminary selection, the highest concentration was 1000 μM, and 10-fold serial dilutions were done. Therefore, the final concentrations for treating cells were 1 μM, 10 μM and 100 μM, and the drug concentrations were repeated for 5 times. Since the chemically-synthetic drugs have colors thereon, the SEAP value of drug-treatment without cells was also determined to be the background value which was deducted while treating with the drugs. The candidate drug for inhibiting telomerase on the hTERT gene expression level was evaluated and anticipated.
# MTT assay in BJ1 cells = format: cell-based; conditions: human, hTERT-BJ1-PTERT(3.4)-SEAP cells, BJ1, read-out: MTT (Inhibition μM ± SD); for viability at 48 h, 1 µM: compound concentration 1 μM; for viability at 48 h, 10 µM: compound concentration 10 μM; for viability at 48 h, 100 µM: compound concentration 100 μM
# Experimental: A total of 2×10^3 […] cells were seeded in the 96-well cell culture plate, and incubated with DMEM (GIBCO®)/glucose mixture and Medium 199 (GIBCO®)/10% FBS/1 mM sodium pyruvate (GIBCO®)/4 mM L-glutamine (GIBCO®) mixture at a ratio of 4:1 at 37° C. for 24 hours. […] After 48 hours of drug treatment, the cultured medium were collected for performing the analysis of SEAP activity. The cells were washed with 1×PBS once immediately, and the MTT assay was performed to compare the compounds with the relative toxicity or the influence to the proliferation and activity. Mitochondria is the place for cellular respiration, and there are many reductive reactions catalyzed by dehydrogenases. MTT is a water-soluble yellow compound, and the […] will be formed after reduction. This crystal can be dissolved in the organic solvent, and has high absorbance at the wavelength of 570 nm. The higher cellular activity or more cell numbers, the more generated crystal violets. Therefore, the cellular activity and cell number can be obtained by the MTT assay. MTT solution was prepared by dissolving MTT powder in PBS solution to achieve 5 mg/ml, filtrated and stored at 4° C. Lysis buffer contained 20% (w/v) of SDS in 50% of N,N-dimethylformamide (DMF, Riedel-deHaën). After the cells were incubated in the 96-well culture plate, the original medium was discarded, 100 μl of the fresh serum-free medium per well and 25 μl of MTT solution per well were added in respectively, and the cells were further incubated in the CO2 incubator at 37° C. for 4 hours. Then, 100 μl of lysis buffer per well was added in and incubated overnight in the CO2 incubator at 37° C. The absorbance at 570 nm was determined by the ELISA reader.
# [1] = NCI-H1299, H1299, compound concentration 1 μM, read-out: SEAP (Inhibition μM ± SD)
# [2] = NCI-H1299, H1299, compound concentration 10 μM, read-out: SEAP (Inhibition μM ± SD)
# [3] = NCI-H1299, H1299, compound concentration 100 μM, read-out: SEAP (Inhibition μM ± SD)
# [4] = NCI-H1299, read-out: SEAP (Inhibition μM ± SD)
Compound,melting point [°C],activity at 1 µM (hTERT expression; [1]) [%],activity at 10 µM (hTERT expression; [2]) [%],activity at 100 µM (hTERT expression; [3]) [%],"viability at 48 h, 1 µM (MTT assay in BJ1 cells) [%]","viability at 48 h, 10 µM (MTT assay in BJ1 cells) [%]","viability at 48 h, 100 µM (MTT assay in BJ1 cells) [%]",activity at 1 µM (hTERT expression; [4]) [%],activity at 10 µM (hTERT expression; [4]) [%],activity at 100 µM (hTERT expression; [4]) [%],SEAP (telomerase inhibition) (hTERT expression; low concentration (1 μM)) [%]
"CC(C)CNCC(=O)Nc1ccc2c(c1)C(=O)c1cc(NC(=O)CNCC(C)C)ccc1C2=O [Compound 14, 2,7-Bis[2-(isobutylamino)acetamido]anthraquinone]",146,73 ± 20,38 ± 15,26 ± 10,107 ± 3,37,39,,,,
"O=C(CCCl)Nc1ccc2c(c1)C(=O)c1cc(NC(=O)CCCl)ccc1C2=O [Compound 15, 2,7-Bis(3-chloropropionamido)anthraquinone]",281,94 ± 11,94 ± 7,87 ± 9,77 ± 2,65 ± 1,39 ± 1,,,,
"CCCCNCCC(=O)Nc1ccc2c(c1)C(=O)c1cc(NC(=O)CCNCCCC)ccc1C2=O [Compound 17, 2,7-Bis[3-(butylamino)propionamido]anthraquinone]",168,56 ± 14,33 ± 9,22 ± 17,80 ± 3,70 ± 1,40,,,,
"O=C(CCN1CCCCC1)Nc1ccc2c(c1)C(=O)c1cc(NC(=O)CCN3CCCCC3)ccc1C2=O [Compound 19, 2,7-Bis[3-(piperidino)propionamido]anthraquinone]",266,55 ± 23,33 ± 8,25 ± 10,92 ± 6,54 ± 2,41 ± 2,,,,
"CN(C)CCC(=O)Nc1ccc2c(c1)C(=O)c1cc(NC(=O)CCN(C)C)ccc1C2=O [Compound 20, 2,7-Bis[3-(dimethylamino)propionamido]anthraquinone]",196,,,,94 ± 7,30 ± 14,22 ± 13,5 ± 94,13 ± 30,,
"CCNCCC(=O)Nc1ccc2c(c1)C(=O)c1cc(NC(=O)CCNCC)ccc1C2=O [Compound 22, 2,7-Bis[3-(ethylamino)propionamido]anthraquinone]",181,,,,82 ± 2,73 ± 3,42 ± 1,68 ± 29,33 ± 24,22 ± 13,
"CC(=O)Nc1ccc2c(c1)C(=O)c1cc(NC(C)=O)ccc1C2=O [Compound 26, 2,7-Bis(acetamido)anthraquinone]",340,,,,106 ± 1,91 ± 2,91 ± 2,97 ± 10,87 ± 14,74 ± 18,
"CCCC(=O)Nc1ccc2c(c1)C(=O)c1cc(NC(=O)CCC)ccc1C2=O [Compound 28, 2,7-Bis(butyramido)anthraquinone]",275,,,,84 ± 2,51 ± 8,50 ± 6,90 ± 8,83 ± 6,83 ± 4,
"O=C1c2ccc(NC(=O)C3CC3)cc2C(=O)c2cc(NC(=O)C3CC3)ccc21 [Compound 32, 2,7-Bis(cyclopropanecarbonamido)anthraquinone]",352,80 ± 1,81 ± 1,81 ± 1,60 ± 6,44 ± 10,47 ± 2,,,,

# Further lines, with some results ahead:
melting point [°C],Compound,activity at 1 µM (hTERT expression; [1]) [%],activity at 10 µM (hTERT expression; [2]) [%],activity at 100 µM (hTERT expression; [3]) [%],"viability at 48 h, 1 µM (MTT assay in BJ1 cells) [%]","viability at 48 h, 10 µM (MTT assay in BJ1 cells) [%]","viability at 48 h, 100 µM (MTT assay in BJ1 cells) [%]",activity at 1 µM (hTERT expression; [4]) [%],activity at 10 µM (hTERT expression; [4]) [%],activity at 100 µM (hTERT expression; [4]) [%],SEAP (telomerase inhibition) (hTERT expression; low concentration (1 μM)) [%]
284,"CN1CCN(CCC(=O)Nc2ccc3c(c2)C(=O)c2cc(NC(=O)CCN4CCN(C)CC4)ccc2C3=O)CC1 [Compound 23, 2,7-Bis[3-(N-methylpiperazino)propionamido]anthraquinone]",75 ± 16,52 ± 11,21 ± 10,95 ± 2,80 ± 2,61 ± 1,,,,
218,"O=C(CCN1CCNCC1)Nc1ccc2c(c1)C(=O)c1cc(NC(=O)CCN3CCNCC3)ccc1C2=O [Compound 24, 2,7-Bis[3-(piperazino)propionamido]anthraquinone]",75 ± 26,71 ± 21,71 ± 15,96 ± 2,100 ± 3,88 ± 4,,,,
234,"O=C(CCCCl)Nc1ccc2c(c1)C(=O)c1cc(NC(=O)CCCCl)ccc1C2=O [Compound 25, 2,7-Bis(4-chlorobutyramido)anthraquinone]",88 ± 19,86 ± 13,78 ± 17,72 ± 3,62 ± 2,58 ± 3,,,,
291,"CCC(=O)Nc1ccc2c(c1)C(=O)c1cc(NC(=O)CC)ccc1C2=O [Compound 27, 2,7-Bis(propionamido)anthraquinone]",90 ± 23,95 ± 14,85 ± 16,77 ± 2,57 ± 2,48 ± 2,,,,
224,"O=C(Nc1ccc2c(c1)C(=O)c1cc(NC(=O)c3ccccc3)ccc1C2=O)c1ccccc1 [Compound 29, 2,7-Bis(benzoamido)anthraquinone]",104 ± 10,92 ± 11,85 ± 19,92 ± 2,85 ± 2,97 ± 3,,,,
224,"O=C(Cc1ccccc1)Nc1ccc2c(c1)C(=O)c1cc(NC(=O)Cc3ccccc3)ccc1C2=O [Compound 30, 2,7-Bis(phenylacetamido)anthraquinone]",97 ± 18,91 ± 21,80 ± 17,93 ± 2,80 ± 3,86 ± 4,,,,70±6
268,"O=C(CCc1ccccc1)Nc1ccc2c(c1)C(=O)c1cc(NC(=O)CCc3ccccc3)ccc1C2=O [Compound 31, 2,7-Bis(phenylpropionamido)anthraquinone]",89 ± 23,79 ± 8,61 ± 13,89 ± 2,44,44 ± 1,,,,
